Assay results as given in US20260137820A1, “TRIFUNCTIONAL COMPOUND AND USE THEREOF” (PEKING UNIVERSITY, priority 2022, published 2026).
*1 amine or outer side, *2 acyl side, *3 side chain or, on linkers, in order; H or OH if unused. Where a SMILES comes first, the peptide text is derived from it. Side-chain parts run from the residue outwards. [ ]: non-standard residue; d: D form. The star is where a group is joined. DOTA = O=C(O)CN1CCN(CC(=O)O)CCN(CC(=O)*)CCN(CC(=O)O)CC1; X1 = O=C([C@@H](Cc1ccc(OS(=O)(=O)F)cc1)N[*:1])[*:2]; 2Nal = N[C@@H](Cc1ccc2ccccc2c1)C(=O)O; dNMeOrn = CN[C@H](CCCN)C(=O)O; 4Amb = NCc1ccc(C(=O)O)cc1

Tests used:
Daudi tumor = test: PET/CT imaging in tumor mouse model with high CXCR4 expression; assay type: in vivo; conditions: 7.4-18.5 MBq i.v., 2 hours, p<0.05
Procedure: (§1) All PET/CT scans were carried out on Mediso nanoScan® PET 122S small animal PET/CT.
(§2) A certain number (n=4) of Daudi tumor mice (for the construction method, see the method in PET Imaging of CXCR4 Receptors in Cancer by a New Optimized Ligand, published by Oliver Demmer et al.) were taken and intravenously injected at specified time points with 7.4-18.5 MBq of ^68Ga-pentixafor (as a control, the labeled precursor is readily commercially available, and the structure is specifically disclosed) and ^68Ga-CXCR4-CB-03 molecules (Note: the injection of the control and investigation molecules was separated apart by at least 12 hours until the previous ^68Ga molecule essentially completely decayed and was essentially completely metabolized). Imaging was carried at the time point of 2 hours, and the SUVmax value in tumor was obtained by a software.

FAP, DPP-4 and PREP = test: Binding selectivity to homologous proteins (competitive inhibition of enzyme substrate, IC50); assay type: biochemical; conditions: from IC50 values, pNA release
Procedure: Taking FAP target as an example, homologous proteins thereof include, but are not limited to, DPP-4 and PREP. The structural similarity thereof may lead to a decreased binding selectivity of the modified precursor molecules for the homologous proteins, resulting in an increased uptake in non-target organs.
The binding selectivity for homologous proteins was determined by a competitive inhibition experiment on the substrate of the enzymes, and the binding/inhibition selectivity thereof is indirectly evaluated by the median inhibitory concentration (IC50) values obtained.
By reference to the method described in Extended Structure-Activity Relationship and Pharmacokinetic Investigation of (4-Quinolinoyl)glycyl-2-cyanopyrrolidine Inhibitors of Fibroblast Activation Protein (FAP). Journal of Medicinal Chemistry 57, 3053-3074 (2014), published by Jansen et al., the initial rate of p-nitroaniline (pNA) released from the substrate (absorption at 405 nm) was measured by using a microplate reader (PerkinElmer, Victor™ X5) at 37° C. in a final volume of 200 μL to determine the kinetic properties of the enzyme activity. […]
The determination method for IC50 on FAP is as follows: the substrate Z-Gly-Pro-p-nitroanilide (50 μM, Cat #G-58468, HEOWNS) was used to measure FAP activity at pH 7.4. […] The mixture was then incubated at 37° C. for 6 hours, and the release of pNA was then measured. […]

HT-1080-FAP tumor [1] = test: ^225Ac radionuclide therapy experiment in tumor mouse model; assay type: in vivo; conditions: ^225Ac-labeled, treatment on day 0 and day 4, same or higher dose; vs normal saline or FAPI-04 control group
Procedure: (§3) When the average tumor size reached about 100 mm^3, HT-1080-FAP tumor mice in the same batch were randomly divided into five groups, with n=7 or 8 in each group. Two rounds of treatment were then carried out on day 0 and day 4. […] The tumor size and weight of the mice were monitored every 2 or 3 days.

HT-1080-FAP tumor [2] = test: PET/CT imaging in HT-1080-FAP tumor-bearing mouse model; assay type: in vivo; conditions: ^68Ga label, 18.5 MBq via tail vein, p<0.005
Procedure: Mouse model: Nu/Nu mice (SPF grade) were purchased from Beijing Charles River Laboratories (China) and injected subcutaneously with HT-1080-FAP cells to construct a tumor model with high FAP expression.
as §1
After a certain number of HT-1080-FAP tumor mice were taken and injected via the tail vein with 7.4-18.5 MBq of ^68Ga/^86Y-FAPI-04 (control) and ^68Ga/^86Y-FAPI-CB series molecules at specified time points (Note: the injection of the control and investigation molecules was separated apart by at least five half-lives of the nuclide to ensure that the radioactivity of the previous probe had almost completely decayed and was essentially completely metabolized), imaging was carried out at specified time points. In some examples, the mice were anesthetized and then sacrificed by neck breaking at a certain time point. Organs were dissected and taken for radioactivity measurement.
A ^68Ge-^68Ga generator was eluted with 5 mL of 0.6 M high-purity hydrochloric acid to obtain a Ga-68 hydrochloric acid solution. 1 mL of the Ga-68 solution after elution was taken, and 100 μL of 3 M sodium hydroxide and 130 μL of 3M sodium acetate were added to adjust the acidity to a final pH of 4.0. 12 μg of FAPI-CB-00 compound was added, and the reaction mixture was heated to 70° C. and maintained for 20 min. […]

HT-1080-FAP tumor [3] = test: ^177Lu radionuclide therapy experiment in tumor mouse model; assay type: in vivo; conditions: ^177Lu-labeled, treatment on day 0 and day 4, same or higher dose; vs normal saline or FAPI-04 control group
Procedure: as §3

AR42J tumor = test: PET/CT imaging in tumor mouse model with high SSTR2 expression; assay type: in vivo; conditions: 7.4-18.5 MBq i.v., 2 hours, p<0.05
Procedure: as §1
as §2, with “AR42J” for “Daudi”, “Combination radionuclide therapy using ^177Lu-and ^90Y-labeled somatostatin analogs,” for “PET Imaging of CXCR4 Receptors in Cancer by a New Optimized Ligand,”, “Marion de Jong” for “Oliver Demmer”, “^68Ga-DOTATATE” for “^68Ga-pentixafor”, “^68Ga-SSTR2-CB-02” for “^68Ga-CXCR4-CB-03”

CN1C(=O)[C@@H](Cc2ccc(OS(=O)(=O)F)cc2)NC(=O)CNC(=O)[C@H](Cc2ccc3ccccc3c2)NC(=O)[C@H](CCCNC(=N)N)NC(=O)[C@H]1CCCNC(=O)c1ccc(CNC(=O)CN2CCN(CC(=O)O)CCN(CC(=O)O)CCN(CC(=O)O)CC2)cc1 [^68Ga-CXCR4-CB-03, metal not drawn] (cyclo([2Nal]G[X1][dNMeOrn]([4Amb-DOTA])R))
drug tumor uptake (SUVmax) compared with ^68Ga-pentixafor (Daudi tumor): significantly higher

N#C[C@@H]1CC(F)(F)CN1C(=O)CNC(=O)c1ccnc2ccc(OCCCN3CCN(C(=O)[C@H](CCCCNC(=O)c4cccc(OS(=O)(=O)F)c4)NC(=O)CN4CCN(CC(=O)O)CCN(CC(=O)O)CCN(CC(=O)O)CC4)CC3)cc12 [FAPI-CB-02]
selectivity to FAP protein over homologous proteins DPP-4 and PREP (FAP, DPP-4 and PREP): high selectivity
tumor inhibition effect (HT-1080-FAP tumor [1]): significantly better tumor inhibition effect
improvement of maximum standard tumor uptake value (SUVmax) compared with FAPI-04 (HT-1080-FAP tumor [2]): ~4 times
tumor inhibition effect (HT-1080-FAP tumor [3]): significantly better tumor inhibition effect

C[C@@H](O)[C@H](NC(=O)[C@@H]1CSSC[C@H](NC(=O)[C@@H](Cc2ccccc2)NC(=O)CN2CCN(CC(=O)O)CCN(CC(=O)O)CCN(CC(=O)O)CC2)C(=O)N[C@@H](Cc2ccc(OS(=O)(=O)F)cc2)C(=O)N[C@H](Cc2c[nH]c3ccccc23)C(=O)N[C@@H](CCCCN)C(=O)N[C@@H]([C@@H](C)O)C(=O)N1)C(=O)O [^68Ga-SSTR2-CB-02, metal not drawn]
drug tumor uptake (SUVmax) compared with ^68Ga-DOTATATE (AR42J tumor): significantly higher
